From ChEMBL document CHEMBL6177948, “Discovery of potential Leonurine-based therapeutic lead MJ210 attenuates Parkinson's disease pathogenesis via NF-κB and MAPK pathways: Mechanistic insights from in vitro and in vivo rotenone models” (Eur J Med Chem, 2025)
The source made the active and inactive calls. No cut-off for these calls is given here.

How the values were obtained:
[1] = test system: SH-SY5Y; experiment: Reversal of rotenone-induced mitochondrial membrane depolarization in human SH-SY5Y cells assessed as decrease in JC-10 monomers by measuring green fluorescence at 5 uM preincubated with compound for 24 hrs followed by rotenone addition and measured after 24 hrs by JC-10 based fluorescence microscopic analysis; type: functional, cell-based
[2] = test system: SH-SY5Y; experiment: Inhibition of MAPK signaling pathway in rotenone-induced human SH-SY5Y cells assessed as reduction in P-38 phosphorylation level by ELISA; type: cell-based
[3] = test system: SH-SY5Y; experiment: Anti-inflammatory activity against rotenone-induced human SH-SY5Y cells assessed as reduction in IL-6 mRNA expression level by RT-qPCR analysis; type: functional, cell-based
[4] = test system: Rattus norvegicus; experiment: Anti-parkinson activity in rotenone-induced male Wistar rat model assessed as increase DAT expression in striatum at 5 mg/kg, ip pretreated with compound every alternative days followed by rotenone addition and measured after 42 days by Western blotting analysis; type: functional, organism-based; settings: time 42.0 day
[5] = Toxicity in male Wistar rat assessed as change in spleen morphology at 1 to 10 mg/kg by H and E staining based analysis; type: organism-based; settings: in vivo, dose 1-10 mg/kg
[6] = test system: SH-SY5Y; experiment: Anti-apoptotic activity in rotenone-induced human SH-SY5Y cells assessed as increase in Bcl-xL expression by Western blotting analysis; type: functional, cell-based
[7] = test system: SH-SY5Y; experiment: Inhibition of MAPK signaling pathway in rotenone-induced human SH-SY5Y cells assessed as reduction in JNK phosphorylation level by ELISA; type: cell-based
[8] = test system: SH-SY5Y; experiment: Anti-apoptotic activity in rotenone-induced human SH-SY5Y cells assessed as reduction in Bax expression by Western blotting analysis; type: functional, cell-based
[9] = Toxicity in male Wistar rat assessed as change in cellular structure of liver at 1 to 10 mg/kg by H and E staining based analysis; type: organism-based; settings: in vivo, dose 1-10 mg/kg
[10] = test system: Rattus norvegicus; experiment: Anti-parkinson activity in rotenone-induced male Wistar rat model assessed as decrease in fall time at 5 mg/kg, ip pretreated with compound every alternative days followed by rotenone addition and measured after 42 days by inverted grid test; type: functional, organism-based; settings: time 42.0 day
[11] = test system: SH-SY5Y; experiment: Neuroprotective activity against rotenone-induced ROS formation in human SH-SY5Y cells assessed as decrease in ROS level at 5 uM preincubated with compound for 24 hrs followed by rotenone addition by H2DCFDA staining based fluorescence microscopic analysis; type: functional, cell-based
[12] = Drug excretion in male Wistar rat brain at 50 mg/kg, ip measured after 4.25 hrs; type: ADME, organism-based; settings: in vivo
[13] = test system: Rattus norvegicus; experiment: Anti-parkinson activity in rotenone-induced male Wistar rat model assessed as improvement in bradykinesia at 5 mg/kg, ip pretreated with compound every alternative days followed by rotenone addition and measured after 42 days by pole test; type: functional, organism-based; settings: time 42.0 day
[14] = test system: Rattus norvegicus; experiment: In vivo inhibition of MAPK signaling pathway in rotenone-induced parkinson disease male Wistar rat model assessed as reduction in JNK phosphorylation level in substantia nigra at 5 mg/kg, ip pretreated with compound every alternative days followed by rotenone addition and measured after 42 days by Western blotting analysis; type: functional, organism-based; settings: time 42.0 day
[15] = test system: Rattus norvegicus; experiment: Anti-parkinson activity in rotenone-induced male Wistar rat model assessed as improvement in t-total metrics at 5 mg/kg, ip pretreated with compound every alternative days followed by rotenone addition and measured after 42 days by pole test; type: functional, organism-based; settings: time 42.0 day
[16] = test system: Rattus norvegicus; experiment: Anti-parkinson activity in rotenone-induced neurodegeneration in male Wistar rat model assessed as reduction in pyknotic neurons in cortex at 5 mg/kg, ip pretreated with compound every alternative days followed by rotenone addition and measured after 42 days by Nissl staining based analysis; type: functional, organism-based; settings: time 42.0 day
[17] = test system: Rattus norvegicus; experiment: Anti-inflammatory activity in rotenone-induced male Wistar rat model assessed as reduction in PGE2 expression level in substantia nigra at 5 mg/kg, ip pretreated with compound every alternative days followed by rotenone addition and measured after 42 days by ELISA; type: functional, organism-based; settings: time 42.0 day
[18] = test system: SH-SY5Y; experiment: Anti-inflammatory activity against rotenone-induced human SH-SY5Y cells assessed as reduction in iNOS mRNA expression level by RT-qPCR analysis; type: functional, cell-based
[19] = test system: Rattus norvegicus; experiment: Anti-inflammatory activity in rotenone-induced male Wistar rat model assessed as reduction in COX2 expression level in striatum at 5 mg/kg, ip pretreated with compound every alternative days followed by rotenone addition and measured after 42 days by ELISA; type: functional, organism-based; settings: time 42.0 day
[20] = Half life in male Wistar rat at 50 mg/kg, ip measured after 24 hrs; type: ADME, organism-based; settings: in vivo
[21] = Toxicity in male Wistar rat assessed as change in kidney morphology at 1 to 10 mg/kg by H and E staining based analysis; type: organism-based; settings: in vivo, dose 1-10 mg/kg
[22] = test system: SH-SY5Y; experiment: Neuroprotective activity against rotenone-induced neuronal apoptosis in human SH-SY5Y cells assessed as decrease in number of apoptotic cells at 5 uM preincubated with compound for 24 hrs followed by rotenone addition and measured after 24 hrs by Hoechst 33258 staining based fluorescence microscopic analysis; type: functional, cell-based; settings: time 48.0 hrs
[23] = test system: Rattus norvegicus; experiment: Anti-parkinson activity in rotenone-induced neurodegeneration in male Wistar rat model assessed as reduced edema in cortex at 5 mg/kg, ip pretreated with compound every alternative days followed by rotenone addition and measured after 42 days by H and E staining based analysis; type: functional, organism-based; settings: time 42.0 day
[24] = test system: SH-SY5Y; experiment: Anti-inflammatory activity against rotenone-induced human SH-SY5Y cells assessed as reduction in CoX-2 mRNA expression level by RT-qPCR analysis; type: functional, cell-based
[25] = test system: Rattus norvegicus; experiment: In vivo inhibition of MAPK signaling pathway in rotenone-induced parkinson disease male Wistar rat model assessed as reduction in P-38 phosphorylation level in striatum at 5 mg/kg, ip pretreated with compound every alternative days followed by rotenone addition and measured after 42 days by Western blotting analysis; type: functional, organism-based; settings: time 42.0 day
[26] = test system: Rattus norvegicus; experiment: Anti-parkinson activity in rotenone-induced neurodegeneration in male Wistar rat model assessed as decrease count of pyknotic cells in substantia nigra at 5 mg/kg, ip pretreated with compound every alternative days followed by rotenone addition and measured after 42 days by H and E staining based analysis; type: functional, organism-based; settings: time 42.0 day
[27] = test system: Rattus norvegicus; experiment: Anti-parkinson activity in rotenone-induced neurodegeneration in male Wistar rat model assessed as reduced edema in substantia nigra at 5 mg/kg, ip pretreated with compound every alternative days followed by rotenone addition and measured after 42 days by H and E staining based analysis; type: functional, organism-based; settings: time 42.0 day
[28] = test system: Rattus norvegicus; experiment: Anti-parkinson activity in rotenone-induced neurodegeneration in male Wistar rat model assessed as decrease neuronal damage in cortex at 5 mg/kg, ip pretreated with compound every alternative days followed by rotenone addition and measured after 42 days by Nissl staining based analysis; type: functional, organism-based; settings: time 42.0 day
[29] = test system: Rattus norvegicus; experiment: Anti-parkinson activity in rotenone-induced neurodegeneration in male Wistar rat model assessed as minimal neuronal loss in cortex at 5 mg/kg, ip pretreated with compound every alternative days followed by rotenone addition and measured after 42 days by H and E staining based analysis; type: functional, organism-based; settings: time 42.0 day
[30] = test system: SH-SY5Y; experiment: Anti-apoptotic activity in rotenone-induced human SH-SY5Y cells assessed as reduction in Caspase-3 expression by Western blotting analysis; type: functional, cell-based
[31] = Toxicity in male Wistar rat assessed as change in liver morphology at 1 to 10 mg/kg by H and E staining based analysis; type: organism-based; settings: in vivo, dose 1-10 mg/kg
[32] = test system: Rattus norvegicus; experiment: Anti-parkinson activity in rotenone-induced male Wistar rat model assessed as reduction in rotenone-induced behavioral impairment by measuring time in central zone at 5 mg/kg, ip pretreated with compound every alternative days followed by rotenone addition and measured after 42 days by open field test; type: functional, organism-based; settings: time 42.0 day
[33] = test system: Rattus norvegicus; experiment: Anti-inflammatory activity in rotenone-induced male Wistar rat model assessed as reduction in COX2 expression level in substantia nigra at 5 mg/kg, ip pretreated with compound every alternative days followed by rotenone addition and measured after 42 days by ELISA; type: functional, organism-based; settings: time 42.0 day

## COc1cc(CCC(=O)N2CCCCC2)cc(OC)c1OC(=O)c1ccccn1
[1]
  Activity: Active
[2]
  inhibition: Active
[3]
  Activity: Active
[4]
  Activity: Active
[5]
  Activity: Non-toxic
[6]
  Activity: Active
[7]
  inhibition: Active
[8]
  Activity: Active
[9]
  Activity: Non-toxic
[10]
  Activity: Active
[11]
  Activity: Active
[12]
  Drug excretion: Active
[13]
  Activity: Active
[14]
  inhibition: Active
[15]
  Activity: Active
[16]
  Activity: Active
[17]
  Activity: Active
[18]
  Activity: Active
[19]
  Activity: Active
[20]
  half-life: 8.5 h
[21]
  Activity: Non-toxic
[22]
  Activity: Active
[23]
  Activity: Active
[24]
  Activity: Active
[25]
  inhibition: Active
[26]
  Activity: Active
[27]
  Activity: Active
[28]
  Activity: Active
[29]
  Activity: Active
[30]
  Activity: Active
[31]
  Activity: Non-toxic
[32]
  Activity: Active
[33]
  Activity: Active
